The results in this text go back to ChEMBL document CHEMBL6177931, “Exploring diverse frontiers: Advancements of bioactive 4-aminoquinoline-based molecular hybrids in targeted therapeutics and beyond” (Eur J Med Chem, 2024).

One data set has as its target Beta-secretase 1 (Homo sapiens, UniProt P56817). The experiment in a line: Inhibition of BACE1 (unknown origin) by FRET assay.
Data set [1] deals with Acetylcholinesterase (Electrophorus electricus, UniProt O42275). The experiment in a line: Inhibition of electric eel AChE using […] as substrate measured within 2 mins.
Sequence of Acetylcholinesterase (Electrophorus electricus, UniProt O42275) (O42275 whole entry): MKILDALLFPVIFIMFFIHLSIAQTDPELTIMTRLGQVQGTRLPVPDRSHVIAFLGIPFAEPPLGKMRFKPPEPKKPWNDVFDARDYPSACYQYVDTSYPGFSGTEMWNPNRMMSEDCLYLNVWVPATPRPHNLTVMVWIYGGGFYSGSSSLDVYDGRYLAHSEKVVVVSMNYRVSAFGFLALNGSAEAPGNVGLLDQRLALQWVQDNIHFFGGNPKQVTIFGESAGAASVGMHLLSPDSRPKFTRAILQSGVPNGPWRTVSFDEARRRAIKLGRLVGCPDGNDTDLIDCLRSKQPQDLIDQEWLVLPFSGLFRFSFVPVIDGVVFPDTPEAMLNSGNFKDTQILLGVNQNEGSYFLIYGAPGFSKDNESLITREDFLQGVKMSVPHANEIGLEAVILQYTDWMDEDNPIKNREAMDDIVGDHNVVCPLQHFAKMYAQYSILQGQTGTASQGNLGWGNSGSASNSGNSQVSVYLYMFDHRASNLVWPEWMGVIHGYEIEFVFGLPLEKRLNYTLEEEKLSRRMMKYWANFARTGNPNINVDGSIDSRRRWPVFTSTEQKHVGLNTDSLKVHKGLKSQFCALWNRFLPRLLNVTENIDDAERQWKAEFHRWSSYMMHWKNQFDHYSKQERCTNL
The target of another data set is Cholinesterase (Equus caballus, UniProt P81908). Description: Inhibition of equine serum BChE using […] as substrate measured within 2 mins.
Sequence of Cholinesterase (P81908 whole entry): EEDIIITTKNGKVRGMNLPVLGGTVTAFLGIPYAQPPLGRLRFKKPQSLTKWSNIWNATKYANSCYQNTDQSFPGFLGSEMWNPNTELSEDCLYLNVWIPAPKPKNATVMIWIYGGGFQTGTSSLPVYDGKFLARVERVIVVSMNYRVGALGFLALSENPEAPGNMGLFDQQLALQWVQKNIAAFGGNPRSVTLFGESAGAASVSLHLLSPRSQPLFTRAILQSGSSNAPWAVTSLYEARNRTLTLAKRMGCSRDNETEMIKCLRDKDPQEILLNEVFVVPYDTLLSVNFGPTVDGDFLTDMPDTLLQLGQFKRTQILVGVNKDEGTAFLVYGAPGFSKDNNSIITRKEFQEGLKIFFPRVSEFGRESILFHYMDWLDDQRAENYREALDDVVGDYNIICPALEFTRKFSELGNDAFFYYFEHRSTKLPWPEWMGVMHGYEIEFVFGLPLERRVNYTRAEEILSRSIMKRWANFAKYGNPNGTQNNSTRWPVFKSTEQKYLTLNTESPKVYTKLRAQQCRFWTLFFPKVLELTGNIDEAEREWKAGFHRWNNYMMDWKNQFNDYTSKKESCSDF
In data set [2] the target is Acetylcholinesterase (Homo sapiens, UniProt P22303). Description: Inhibition of AChE (unknown origin).
Sequence of Acetylcholinesterase (Homo sapiens, UniProt P22303) (P22303 whole entry): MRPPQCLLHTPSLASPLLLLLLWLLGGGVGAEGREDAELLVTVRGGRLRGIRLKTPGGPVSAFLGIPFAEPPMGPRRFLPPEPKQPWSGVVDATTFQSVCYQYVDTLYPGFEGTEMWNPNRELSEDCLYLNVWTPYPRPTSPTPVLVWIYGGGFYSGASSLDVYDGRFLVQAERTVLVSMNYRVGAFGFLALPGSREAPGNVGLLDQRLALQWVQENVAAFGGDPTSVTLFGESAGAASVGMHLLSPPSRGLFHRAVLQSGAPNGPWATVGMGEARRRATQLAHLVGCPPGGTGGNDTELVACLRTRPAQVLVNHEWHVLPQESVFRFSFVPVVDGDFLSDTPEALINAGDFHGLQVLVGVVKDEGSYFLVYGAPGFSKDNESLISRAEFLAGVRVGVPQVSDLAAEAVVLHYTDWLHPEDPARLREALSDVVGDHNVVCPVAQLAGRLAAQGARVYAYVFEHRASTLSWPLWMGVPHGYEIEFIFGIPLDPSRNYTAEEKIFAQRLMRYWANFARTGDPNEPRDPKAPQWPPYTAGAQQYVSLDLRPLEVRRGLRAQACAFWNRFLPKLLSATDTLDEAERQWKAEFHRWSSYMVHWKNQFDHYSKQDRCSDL
The subject of data set [3] is Plasmodium falciparum. Description: Potency index, ratio of chloroquine IC50 to test compound IC50 for antimalarial activity against Plasmodium falciparum Dd2. The class given is functional.
Data set [4] deals with Plasmodium falciparum. Description: Antiplasmodial activity against chloroquine resistant Plasmodium falciparum K1 infected in human erythrocytes incubated for 48 hrs by lactate dehydrogenase assay. As to conditions: K1, Erythrocyte. The class given is functional, organism-based.
The test system of data set [5] is Plasmodium falciparum. The experiment in a line: Antimalarial activity against chloroquine sensitive sorbitol synchronized Plasmodium falciparum 3D7 assessed as inhibition of parasite growth incubated for 72 hrs by HRP2 ELISA based assay. The class given is functional, organism-based. Conditions: 3D7, 72 h. (In general: ELISA stands for enzyme-linked immunosorbent assay.)

For data set [6], the system named is Plasmodium falciparum. Description: Antimalarial activity against chloroquine resistant sorbitol synchronized Plasmodium falciparum W2 assessed as inhibition of parasite growth incubated for 72 hrs by HRP2 ELISA based assay. Conditions: W2, 72 h. The class given is functional, organism-based.
Data set [7] has as its system Mycobacterium tuberculosis. Description: Antitubercular activity against Mycobacterium tuberculosis H37Rv assessed as inhibition of visible bacterial growth incubated for 7 days by broth microdilution method. The class given is functional. As to conditions: 168 h, time 7 day. (Dilution methods test growth across graded concentrations, often in twofold steps.)
A further data set deals with HepG2. Description: Cytotoxicity against human HepG2 cells assessed as cell viability incubated for 24 hrs by MTT assay relative to control. The class given is functional. For orientation: Tetrazolium assays rely on reduction of a dye to a coloured formazan, in cell work by metabolically active cells.
Data set [8] has as its system Mus musculus. Description: Anti-inflammatory activity against carrageenan-induced paw edema mouse model assessed as reduction in edema measured after 1 hrs relative to control. The class given is functional. More on the design: scale not given: the % may be the effect or the level left.
Data set [9] has as its system Mus musculus. Description: Anti-inflammatory activity against carrageenan-induced paw edema mouse model assessed as reduction in edema measured after 2 hrs relative to control. The class given is functional. More on the design: scale not given: the % may be the effect or the level left.
Data set [10] concerns Mus musculus. The experiment in a line: Anti-inflammatory activity against carrageenan-induced paw edema mouse model assessed as reduction in edema measured after 3 hrs relative to control. The class given is functional. More on the design: scale not given: the % may be the effect or the level left.
The subject of the next data set is SARS-CoV. Description: Antiviral activity against SARS-CoV 2019-nCoV infected in african green monkey Vero E6 cells. The class given is functional. Conditions: Severe acute respiratory syndrome-related coronavirus, Vero C1008.
Data set [11] in a line: Inhibition of ConA-induced IL-6 secretion in female BALB/c mouse splenocyte incubated for 48 hrs by ELISA. The class given is functional, cell-based.
Data set [12] in a line: Inhibition of ConA-induced IL-1beta secretion in female BALB/c mouse splenocyte incubated for 48 hrs by ELISA. The class given is functional, cell-based.
A short description of data set [13]: Inhibition of ConA-induced TNF-alpha secretion in female BALB/c mouse splenocyte incubated for 48 hrs by ELISA. The class given is functional, cell-based.
In data set [14] the test system is Leishmania amazonensis. The experiment in a line: Antileishmanial activity against Leishmania amazonensis promastigotes infected in mouse macrophages assessed as inhibition of parasite growth incubated for 72 hrs by giemsa staining based analysis. The class given is functional, organism-based. As to conditions: Macrophage.
The test system of data set [15] is Leishmania amazonensis. The experiment in a line: Antileishmanial activity against Leishmania amazonensis amastigotes infected in mouse macrophages assessed as inhibition of parasite growth incubated for 72 hrs by giemsa staining based analysis. The class given is functional, organism-based. Conditions: Macrophage.
The nature of data set [16]: Selectivity index, ratio of CC50 for cytotoxicity against mouse macrophage to IC50 for antileishmanial activity against Leishmania amazonensis amastigotes infected in mouse macrophages assessed as inhibition of parasite growth. The class given is toxicity, cell-based. As to conditions: read-out: Ratio CC50/IC50.
The subject of data set [17] is Plasmodium falciparum. Description: Antiplasmodial activity against chloroquine sensitive Plasmodium falciparum 3D7 incubated for 72 hrs by SYBR green I based fluorescence assay. As to conditions: 3D7, 72 h. The class given is functional, organism-based.
A further data set deals with MCF7. Description: Antiproliferative activity against human MCF7 cells assessed as cell growth inhibition incubated for 72 hrs by MTT assay. The class given is functional.
In a further data set the test system is HCT-116. Description: Anticancer activity against human HCT-116 cells assessed as cell growth inhibition incubated for 72 hrs by MTT assay. The class given is functional.
The test system of the next data set is NCI-H460. The experiment in a line: Anticancer activity against human NCI-H460 cells assessed as cell growth inhibition incubated for 72 hrs by MTT assay. The class given is functional.
The test system of a further data set is LN-229. The experiment in a line: Anticancer activity against human LN-229 cells assessed as cell growth inhibition by MTS assay. The class given is functional.
In another data set the test system is CAPAN-1. The experiment in a line: Anticancer activity against human CAPAN-1 cells assessed as cell growth inhibition by MTS assay. The class given is functional.
The nature of data set [18]: Anticancer activity against human DND41 cells assessed as cell growth inhibition incubated for 72 hrs by CellTiter96 aqueous Non-Radioactive Cell Proliferation Assay. The class given is functional.
The subject of a further data set is HL-60. The experiment in a line: Anticancer activity against human HL-60 cells assessed as cell growth inhibition incubated for 72 hrs by CellTiter96 aqueous Non-Radioactive Cell Proliferation Assay. The class given is functional.
In another data set the test system is K562. Description: Anticancer activity against human K562 cells assessed as cell growth inhibition incubated for 72 hrs by CellTiter96 aqueous Non-Radioactive Cell Proliferation Assay. The class given is functional.
A further data set has as its system Z-138. Description: Anticancer activity against human Z138 cells assessed as cell growth inhibition incubated for 72 hrs by CellTiter96 aqueous Non-Radioactive Cell Proliferation Assay. The class given is functional.
The next data set has as its system Coxsackievirus. The experiment in a line: Antiviral activity against Coxsackievirus B4 infected in human HEp-2 cells assessed as reduction in virus-induced cytopathic effect incubated for 3 to 10 days by MTS assay. The class given is functional, organism-based. Conditions: B4, HEp-2.
The test system of a further data set is Zika virus. Description: Antiviral activity against Zika virus infected in African green monkey Vero cells assessed as reduction in virus-induced cytopathic effect incubated for 3 to 10 days by MTS assay. The class given is functional, organism-based.
A short description of data set [19]: Cytotoxicity against human HEp-2 cells assessed as reduction in cell viability incubated for 3 to 10 days by MTS assay. The class given is toxicity, cell-based. Conditions: time 3-10 day.
Data set [20] can be described thus: Cytotoxicity against African green monkey Vero cells assessed as reduction in cell viability incubated for 3 to 10 days by MTS assay. The class given is toxicity, cell-based. Conditions: chlorocebus sabaeus, time 3-10 day.

What is called IC50 is the concentration that inhibits the measured activity by half. The term EC50 denotes the concentration that produces a half-maximal response. Broadly, the MIC is the smallest concentration in the dilution series that meets the test's criterion for growth inhibition. As usually defined, the EC90 is the concentration needed for an effect of 90%. By GI50 is commonly meant the concentration at which growth is held to half of that of the control. Usually CC50 stands for the concentration giving 50% cytotoxicity.

Converted amounts (≈) assume the structure as drawn.

Sequence of Beta-secretase 1 (P56817 whole entry): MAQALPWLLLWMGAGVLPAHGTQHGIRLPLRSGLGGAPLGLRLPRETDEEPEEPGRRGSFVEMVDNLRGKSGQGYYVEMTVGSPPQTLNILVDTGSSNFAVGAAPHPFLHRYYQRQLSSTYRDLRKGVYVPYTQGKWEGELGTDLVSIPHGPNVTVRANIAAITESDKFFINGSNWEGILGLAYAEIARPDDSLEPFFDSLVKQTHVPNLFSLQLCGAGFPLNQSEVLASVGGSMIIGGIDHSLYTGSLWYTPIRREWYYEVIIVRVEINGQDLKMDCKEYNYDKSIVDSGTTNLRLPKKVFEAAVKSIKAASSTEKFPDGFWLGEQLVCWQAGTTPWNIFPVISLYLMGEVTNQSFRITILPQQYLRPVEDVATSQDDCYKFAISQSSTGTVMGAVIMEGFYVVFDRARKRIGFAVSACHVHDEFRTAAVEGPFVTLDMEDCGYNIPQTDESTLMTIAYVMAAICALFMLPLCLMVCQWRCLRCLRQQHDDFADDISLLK

As for `Nc1c2c(nc3c1C(c1cccc([N+](=O)[O-])c1)C1=C(O3)C(=O)c3ccccc3C1=O)CCCC2` (centres undefined), the values for the IC50 against Beta-secretase 1, against Acetylcholinesterase [1] and on Cholinesterase were 19.6 µM, 0.86 µM and 6.03 µM, respectively.
As to `O=P(NCCCCCCCCCCCCNc1c2c(nc3ccccc13)CCCC2)(Oc1ccccc1)Oc1ccccc1`, it took 24300 µM to reach half-maximal inhibition against Acetylcholinesterase [2] (IC50).
In the case of `CC(C)Cc1ccc(C(C)C(=O)NCCNc2ccnc3cc(Cl)ccc23)cc1` (centres undefined), the “Ratio IC50” value in the data set on Plasmodium falciparum [3] is 4.
`CCOC(=O)c1nn(CCNc2ccnc3cc(Cl)ccc23)c2c1C(c1ccc(CC)cc1)C(C#N)=C(N)O2` (centres undefined): the EC50 in the data set on Plasmodium falciparum [4] came out at 0.02 µM.
On to `COc1cc(NC(C)CCCN)c2ncccc2c1` (centres undefined) [PRIMAQUINE], for which the IC50 in the data set on Plasmodium falciparum [5] is 1.12 µM; with Plasmodium falciparum [6], 0.182 µM.
With `CC(CNc1ccnc2cc(Cl)ccc12)NC(=O)Nc1nc2ccc(C(F)(F)F)cc2s1` (centres undefined), in data set [7], the MIC turned out to be 0.968 µM (≈ 0.465 µg/mL). Also, the Activity in the data set on HepG2 is reported as 100%.
In the case of `O=C(CN1CCN(c2ccccc2)CC1)N1CCN(c2ccnc3cc(Cl)ccc23)CC1`, the values for the Activity with Mus musculus [8], in the data set with Mus musculus [9] and in the data set with Mus musculus [10] were 34%, 50% and 64%, respectively.
Take `CCN(CC)CCCC(C)Nc1ccnc2cc(Cl)ccc12` (centres undefined) [CHLOROQUINE]: in the data set on SARS-CoV, it took 6.9 µM to reach the 90% level (EC90). The figures for the IC50 in data set [11], in [12] and in [13] were 14.6 µM, 2.72 µM and 35 µM, respectively.
As to `CCCCCCCCCCn1cc(CNCCNc2ccnc3cc(Cl)ccc23)nn1`, the IC50 came to 5.7 µM with Leishmania amazonensis [14] and 1.1 µM with Leishmania amazonensis [15]. Moreover, the selectivity ratio in data set [16] turned out to be 16.
For `O=C(Cn1cc(COc2ccc(Br)cc2)nn1)NCCNc1ccnc2cc(Cl)ccc12`, it took 0.04 µM to reach half-maximal inhibition in the data set on Plasmodium falciparum [17] (IC50).
In the case of `C/C(=C\C(=O)NCCCCNc1cc(C(F)(F)F)nc2c(C(F)(F)F)cccc12)C(=O)NCCCCNc1cc(C(F)(F)F)nc2c(C(F)(F)F)cccc12`, the concentration for 50% growth inhibition (GI50) was found to be 0.7 µM with MCF7; 2.4 µM in the data set with HCT-116; 3 µM in the data set on NCI-H460; 2.4 µM in the data set with LN-229; 2.3 µM in the data set on CAPAN-1; 7.9 µM in data set [18]. Also, the results for the GI50 with HL-60, in the data set with K562 and with Z-138 were 2.6 µM, 8.6 µM and 6.9 µM, respectively. The EC50 in the data set on Coxsackievirus and in the data set on Zika virus was 0.85 µM each time. Further, the CC50 in data set [19] is 6.7 µM; in data set [20], 10 µM.
